Reference: patent US20090252814A1, “USE OF XENON FOR ORGAN PROTECTION” (priority 2005, published 2009)

Columns and labels:
[1] = in combination with oxygen; cited from earlier work
[2] = xenon gas; cited from earlier work
PHD2 = PHD2 expression in adult mice brains (western blot); assay type: in vivo, C57BL/6J mice; details: 75% xenon and 25% oxygen 2 h, harvested 0-48 h after
Procedure: Studies were performed on 8- to 12-wk-old C57BL/6J mice (Jackson Labs, Bar Harbor, Me.) that were fed a standard laboratory diet. All procedures were approved by the Home Office.
(§1) The mice were exposed to 75% xenon and 25% oxygen for two hours. The xenon gas was administered to the mice by inhalation. The brains of said adult mice were then harvested as described below between 0-48 hours after exposure to the xenon gas.
(§2) The tissues were homogenised and western blots of adult mice brain samples were carried out as described in Example 1.
The primary antibody was monoclonal mouse anti-PHD2 antibody.

brain = test: Cortical infarction in neonatal rat brain, xenon and cooling; assay type: in vivo, Sprague Dawley rats; design: Total area of infraction: unit not given here
Procedure: Sprague Dawley, 7 day neonatal rats were used. All procedures were approved by the Home Office.
The neonatal rats were exposed to: • (i) 20% xenon alone for 2 hours; • (ii) 35° C. hypothermia for 90 minutes; or • (iii) Hypothermia (35° C.) for 90 minutes before, 1 hour later, 20% xenon for 2 hours.
The gas was administered by gas inhalation.
The brains of said rats were then harvested at a set time after exposure to the xenon gas. A total of 11 rats were examined for each treatment group.
The brains were assessed for cortical infarction in the affected hemisphere.
The “intervention” rats under went an ischaemic injury to the brain.

rabbit heart = details: xenon during early reperfusion, rabbit heart (Preckel et al 2000); cited from earlier work
HIF-1α = HIF-1α expression in the kidney after exposure to xenon (western blot); assay type: in vivo, C57BL/6J mice; details: adult mice, 75% xenon 2 h by inhalation, kidneys harvested 0-24 h after
Procedure: Studies were performed on adult 8- to 12-wk-old C57BL/6J mice (Jackson Labs, Bar Harbor, Me.) that were fed a standard laboratory diet. All procedures were approved by the Home Office.
The mice were exposed to 75% xenon for two hours. The xenon gas was administered to the mice by inhalation. The kidneys of said mice were then harvested as described below between 0-24 hours after exposure to the xenon gas.
Once sacrificed, the kidneys were harvested and frozen at −80° C. […] Protein concentration in the supernatant was determined by DC (detergent-compatible) protein assay (Bio-Rad, Herts, UK), based on the Lowry method. […]
After washing in TBS-T the membrane was incubated with the appropriate goat-derived horseradish peroxidase-conjugated secondary antibody at room temperature for 1½ hours to detect the primary antibodies. The immunoreactive bands were visualised with the enhanced chemiluminescence system and detected on X-ray film. The results were quantified by densitometry as an x-fold increase relative to the control without xenon—the amount of protein applied was normalised by the densitometry of the tubulin (which was unaltered by the intervention itself). […]

VEGF = VEGF expression in adult mice brains (western blot); assay type: in vivo, C57BL/6J mice; details: 75% xenon and 25% oxygen 2 h, harvested 0-48 h after
Procedure: Studies were performed on 8 to 12-wk-old C57BL/6J mice (Jackson Labs, Bar Harbor, Me.) that were fed a standard laboratory diet. All procedures were approved by the Home Office.
as §1, §2
The primary antibodies were anti-α-tubulin antibody, and monoclonal mouse anti-VEGF antibody.

[Xe] [xenon]
concentrations exhibiting anaesthetic effects [1]: 10-70 vol. % | specific gravity or density [2]: 5.887 g/L | expression of PHD2 (PHD2): time-dependent reduction | Total area of infraction (brain; Control rats, 20% xenon alone column): 88.3 (±4.1) | Total area of infraction (brain; Control rats, combination column): 92.7 (±6.7) | Total area of infraction (brain; Intervention rats (ischaemic injury), 20% xenon alone for 2 hours): 85.3 (±8.9) | Total area of infraction (brain; Intervention rats (ischaemic injury), combination: hypothermia 35° C. 90 min, 1 hour later 20% xenon 2 hours): 74.1 (±7.8) | interaction of xenon and cooling on area of infraction (brain; hypothermia followed by xenon, administered asynchronously): synergy | infarct size after regional ischaemia (rabbit heart): reduces infarct size | HIF-1α expression in the kidneys (HIF-1α): time-dependent increase | expression of VEGF (VEGF): time-dependent increase
